One test has as its target T1, BSA (Bos taurus, UniProt P02769).
T1 construct: gene ALB; commercial serum albumin, biotinylated, control protein
The test can be described thus: biolayer interferometry (Octet RED). The class given is binding. Conditions: negative control protein, biotinylated BSA on sensor; paper states no interaction; unreliable. (In general: Biolayer interferometry detects binding as a change in optical thickness at a sensor tip.)

Test [1] concerns the target T2, NTCP (recombinant His-tagged human NTCP; hNTCP) (Homo sapiens, UniProt Q14973).
T2 sequence (Q14973 1-349): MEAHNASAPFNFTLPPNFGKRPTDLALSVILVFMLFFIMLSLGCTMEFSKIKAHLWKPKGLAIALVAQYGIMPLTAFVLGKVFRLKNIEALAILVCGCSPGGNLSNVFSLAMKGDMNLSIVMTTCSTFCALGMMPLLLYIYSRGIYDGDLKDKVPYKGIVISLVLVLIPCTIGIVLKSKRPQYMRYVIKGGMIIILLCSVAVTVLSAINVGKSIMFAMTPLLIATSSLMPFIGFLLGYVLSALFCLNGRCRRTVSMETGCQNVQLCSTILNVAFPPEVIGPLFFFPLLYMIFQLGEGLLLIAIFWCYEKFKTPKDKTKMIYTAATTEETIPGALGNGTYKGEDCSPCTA
Kind of test: inhibition of FITC-preS1-myr binding to Huh7D-hNTCP cells, high-content imaging. The class given is cell-based. On the set-up: gene SLC10A1. From the text:
inhibition of FITC-preS1-myr binding to Huh7D-hNTCP cells, high-content imaging on NTCP (recombinant His-tagged human NTCP; hNTCP) | inhibited the binding of FITC-preS1 to cells in a concentration-dependent manner with an IC50

In test [2] the target is T2, NTCP (recombinant His-tagged human NTCP; hNTCP). The test can be described thus: biolayer interferometry (Octet RED). On the set-up: gene SLC10A1; full-length from pEnter-hNTCP, His-tag, expressed in and purified from HEK293T, biotinylated for Octet. The class given is binding.

pIC50, pKd: −log10 of the molar value.

T1 sequence (P02769 25-607): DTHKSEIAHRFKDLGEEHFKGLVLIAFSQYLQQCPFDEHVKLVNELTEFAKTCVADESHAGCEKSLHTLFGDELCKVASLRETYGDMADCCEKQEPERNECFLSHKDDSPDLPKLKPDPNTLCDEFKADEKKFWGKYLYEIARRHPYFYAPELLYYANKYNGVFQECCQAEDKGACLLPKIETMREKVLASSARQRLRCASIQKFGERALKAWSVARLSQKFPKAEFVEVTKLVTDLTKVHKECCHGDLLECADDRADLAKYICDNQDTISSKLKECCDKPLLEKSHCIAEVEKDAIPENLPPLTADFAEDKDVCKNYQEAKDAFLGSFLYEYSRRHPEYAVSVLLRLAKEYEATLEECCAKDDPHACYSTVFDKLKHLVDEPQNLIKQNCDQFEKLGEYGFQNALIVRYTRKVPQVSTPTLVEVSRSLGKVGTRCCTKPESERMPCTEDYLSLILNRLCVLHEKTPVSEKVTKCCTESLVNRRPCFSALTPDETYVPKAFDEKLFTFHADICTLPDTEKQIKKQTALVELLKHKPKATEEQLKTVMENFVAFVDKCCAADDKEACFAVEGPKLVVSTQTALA

For orientation: KD means the constant that tells how readily two partners part at equilibrium. One may read the pIC50 as −log10 of the IC50, conventionally taken in molar units. As usually defined, the pKd is the negative decadic logarithm of the Kd, by convention in mol/L. `Cc1cc(-c2ccc(/N=N/c3ccc4c(S(=O)(=O)O)cc(S(=O)(=O)O)c(N)c4c3O)c(C)c2)ccc1/N=N/c1ccc2c(S(=O)(=O)O)cc(S(=O)(=O)O)c(N)c2c1O` [Evans blue] registered a KD on BSA of 468 µM. In test [1], the negative-log IC50 (pIC50) is around 5.30. In addition, the pKd in test [2] is 7.05.

These data come from publication PMC6868041, “Evans Blue Inhibits HBV Replication Through a Dual Antiviral Mechanism by Targeting Virus Binding and Capsid Assembly” (Frontiers in Microbiology, 2019).
